Assay results: ChEMBL document CHEMBL3351645, “Design and synthesis of γ-butyrolactone derivatives as potential spermicidal agents” (Bioorg Med Chem Lett, 2014)
Activity calls are given as the source filed them. The calls are words filed in the database; no cut-off is given here.

Columns and labels:
Spermatozoa [1] = assay: Spermicidal activity in human semen assessed as induction of spermatozoa immotility by Sander-Cramer method; assay type: functional
Spermatozoa [2] = assay: Spermicidal activity in human semen assessed as induction of spermatozoa immotility at 0.1% w/v by Sander-Cramer method; assay type: functional, cell-based
Spermatozoa [3] = assay: Spermicidal activity in human semen assessed as induction of spermatozoa immotility at <0.1% w/v by Sander-Cramer method; assay type: functional
HeLa = assay: Cytotoxicity against human HeLa cells; assay type: cell-based
Spermatozoa [4] = assay: Inhibition of free thiols level in human semen derived spermatozoa at 1% incubated for 15 mins by monobromobimane dye based fluorescence microscopy; assay type: functional, cell-based

Compound	MEC (Spermatozoa [1])	Activity (Spermatozoa [2])	MEC (Spermatozoa [3]) [%]	IC50 (HeLa) [µg/mL]	inhibition (Spermatozoa [4])
CCN(CC)CCC1(C(C)=O)CCOC1=O (stereo unspecified)	inactive				
CN(C)c1ccc(/C=C/C(=O)C2(CCN3CCCC3)CCOC2=O)cc1 (stereo unspecified)		inactive			
O=C(/C=C/c1ccc(O)cc1)C1(CCN2CCCC2)CCOC1=O (stereo unspecified)		inactive			
CCN(CC)CCC1(C(=O)/C=C/c2ccc(O)c(OC)c2)CCOC1=O (stereo unspecified)		inactive			
COc1cc(/C=C/C(=O)C2(CCN3CCOCC3)CCOC2=O)ccc1O.O=C(O)C(O)C(O)C(=O)O (stereo unspecified)	0.5%		0.1	848	
CN(C)c1ccc(/C=C/C(=O)C2(CCN3CCOCC3)CCOC2=O)cc1.O=C(O)C(O)C(O)C(=O)O (stereo unspecified)	0.5%		0.5	1330	
COc1cc(/C=C/C(=O)C2(CCN3CCCC3)CCOC2=O)ccc1O (stereo unspecified)		inactive			
CC(=O)C1(CCN2CCCC2)CCOC1=O (stereo unspecified)	inactive				
CCCCCCCCCc1ccc(OCCOCCOCCOCCOCCOCCOCCOCCOCCO)cc1 [NONOXYNOL 9]			0.02		
CC(=O)C1(CCN2CCOCC2)CCOC1=O (stereo unspecified)	inactive				
CC(=O)C1(CCCN(C)C)CCOC1=O (stereo unspecified)	inactive				
CN(C)CCCC1(C(=O)/C=C/c2ccc(N(C)C)cc2)CCOC1=O.O=C(O)C(O)C(O)C(=O)O (stereo unspecified)	0.5%		0.1	1200	
CN(C)CCCC1(C(=O)/C=C/c2ccc(O)cc2)CCOC1=O.O=C(O)C(O)C(O)C(=O)O (stereo unspecified)	0.5%		0.5	661	
CCN(CC)CCC1(C(=O)/C=C/c2ccc(O)cc2)CCOC1=O (stereo unspecified)		inactive			
O=C(/C=C/c1ccc(O)cc1)C1CCOC1=O (stereo unspecified)	inactive	inactive			
CCN(CC)CCC1(C(=O)/C=C/c2ccc(N(C)C)cc2)CCOC1=O (stereo unspecified)		inactive			
COc1cc(/C=C/C(=O)C2CCOC2=O)ccc1O (stereo unspecified)		inactive			
COc1cc(/C=C/C(=O)C2(CCCN(C)C)CCOC2=O)ccc1O.O=C(O)C(O)C(O)C(=O)O (stereo unspecified)	0.05%		0.05	269	inactive
CN(C)c1ccc(/C=C/C(=O)C2CCOC2=O)cc1 (stereo unspecified)	inactive	inactive			
O=C(/C=C/c1ccc(O)cc1)C1(CCN2CCOCC2)CCOC1=O.O=C(O)C(O)C(O)C(=O)O (stereo unspecified)	0.05%		0.05	961	Active
